Reference: ChEMBL document CHEMBL1127973, “A comparative molecular field analysis derived model of the binding of taxol analogues to microtubules” (Bioorg Med Chem Lett, 1994)

How the values were obtained:
Tubulin (Homo sapiens) [1] = target: T1, Tubulin (Homo sapiens) (UniProt P68371+Q9H4B7+P0DPH7+P68366+Q13509+Q71U36+P04350+Q3ZCM7+P07437+P68363+Q9BQE3+Q6PEY2+Q13885+Q9BVA1+Q9BUF5); assay: Binding affinity to microtubules, activity expressed as ID50 of compound/ID50 of paclitaxel; assay type: protein-complex assay
Tubulin (Homo sapiens) [2] = target: T1, Tubulin (Homo sapiens); assay: Binding affinity to microtubules, activity expressed as log 1/ID50 of compound/ID50 of paclitaxel; assay type: protein-complex assay

SMILES | ID50 ratio (Tubulin (Homo sapiens) [1]) | Log 1/ratio (Tubulin (Homo sapiens) [2])
CC(=O)O[C@H]1C[C@]2(C)[C@@H](O)C[C@H]3OC[C@@]3(OC(C)=O)[C@H]2[C@H](OC(=O)c2ccccc2)[C@@]2(O)C[C@H](OC(=O)[C@H](O)[C@@H](NC(=O)c3ccccc3)c3ccccc3)C(C)C1C2(C)C (stereo partly specified) | 3 | -0.477
CC(=O)O[C@H]1C(=O)[C@@]2(C)[C@H]([C@H](OC(=O)c3ccccc3)[C@]3(O)C[C@H](OC(=O)[C@H](O)[C@@H](NC(=O)CC(C)(C)C)c4ccccc4)C(C)=C1C3(C)C)[C@]1(OC(C)=O)CO[C@@H]1C[C@@H]2O | 0.7 | 0.155
CC(=O)O[C@H]1C(=O)[C@@]2(C)[C@H]([C@H](OC(=O)c3ccccc3)[C@]3(O)C[C@H](OC(=O)[C@H](O)[C@@H](NC(=O)c4ccccc4)c4ccc(Cl)cc4)C(C)=C1C3(C)C)[C@]1(OC(C)=O)CO[C@@H]1C[C@@H]2O | 1.9 | -0.279
COc1ccc([C@H](NC(=O)c2ccccc2)[C@@H](O)C(=O)O[C@H]2C[C@@]3(O)[C@@H](OC(=O)c4ccccc4)[C@@H]4[C@]5(OC(C)=O)CO[C@@H]5C[C@H](O)[C@@]4(C)C(=O)[C@H](OC(C)=O)C(=C2C)C3(C)C)cc1 | 0.5 | 0.301
CC(=O)O[C@H]1C(=O)[C@]2(C)[C@@H](OC(=O)c3ccccc3)C[C@H]3OC[C@@]3(OC(C)=O)[C@H]2[C@H](OC(=O)c2ccccc2)[C@]2(O)C[C@H](OC(=O)[C@H](O)[C@@H](NC(=O)c3ccccc3)c3ccccc3)C(C)=C1C2(C)C | 1.7 | -0.23
CC(=O)O[C@H]1C(=O)[C@@]2(C)[C@H]([C@H](OC(=O)c3ccccc3)[C@]3(O)C[C@H](OC(=O)[C@H](NC(=O)c4ccccc4)[C@@H](O)c4ccccc4)C(C)=C1C3(C)C)[C@]1(OC(C)=O)CO[C@@H]1C[C@@H]2O | 10 | -1
CC(=O)O[C@H]1C(=O)[C@@]2(C)[C@H]([C@H](OC(=O)c3ccccc3)[C@]3(O)C[C@H](OC(=O)[C@H](O)[C@@H](NC(=O)c4ccccc4)c4ccccc4)C(C)=C1C3(C)C)[C@]1(OC(C)=O)CO[C@@H]1C[C@@H]2O (stereo in doubt; 14) | 0.8 | 0.0969
CC(=O)O[C@@]12CO[C@@H]1C[C@H](OC(=O)[C@H](N)Cc1ccccc1)[C@@]1(C)C(=O)[C@H](O)C3=C(C)[C@@H](OC(=O)[C@H](O)[C@@H](NC(=O)OC(C)(C)C)c4ccccc4)C[C@@](O)([C@@H](OC(=O)c4ccccc4)[C@H]21)C3(C)C | 1 | 0
CC(=O)O[C@H]1C(=O)[C@@]2(C)[C@H]([C@H](OC(=O)c3ccccc3)[C@]3(O)C[C@H](OC(=O)[C@H](O)[C@@H](NC(=O)c4cccc(Cl)c4)c4ccccc4)C(C)=C1C3(C)C)[C@]1(OC(C)=O)CO[C@@H]1C[C@@H]2O | 2 | -0.301
CC(=O)O[C@@]12CO[C@@H]1C[C@H](O)[C@@]1(C)C(=O)[C@H](O)C3=C(C)[C@@H](OC(=O)[C@@H](O)[C@H](NC(=O)c4ccccc4)c4ccccc4)C[C@@](O)([C@@H](OC(=O)c4ccccc4)[C@H]21)C3(C)C | 4 | -0.602
CC(=O)O[C@@]12CO[C@@H]1C[C@H](O)[C@@]1(C)C(=O)[C@H](O)C3=C(C)[C@@H](OC(=O)[C@H](O)Cc4ccccc4)C[C@@](O)([C@@H](OC(=O)c4ccccc4)[C@H]21)C3(C)C | 4.5 | -0.653
CC(=O)O[C@@]12CO[C@@H]1C[C@H](O)[C@@]1(C)C(=O)[C@H](O)C3=C(C)[C@@H](OC(=O)[C@@H](NC(=O)OC(C)(C)C)[C@H](O)c4ccccc4)C[C@@](O)([C@@H](OC(=O)c4ccccc4)[C@H]21)C3(C)C | 160 | -2.2
CC(=O)O[C@@]12CO[C@@H]1C[C@H](O)[C@@]1(C)C(=O)[C@H](O)C3=C(C)[C@@H](OC(=O)[C@@H](NC(=O)c4ccccc4)[C@H](O)c4ccccc4)C[C@@](O)([C@@H](OC(=O)c4ccccc4)[C@H]21)C3(C)C | 170 | -2.23
CC(=O)O[C@@]12CO[C@@H]1C[C@H](O)[C@@]1(C)C(=O)[C@H](O)C3=C(C)[C@@H](OC(=O)[C@H](NC(=O)c4ccccc4)[C@@H](O)c4ccccc4)C[C@@](O)([C@@H](OC(=O)c4ccccc4)[C@H]21)C3(C)C | 10 | -1
CC(=O)O[C@@]12CO[C@@H]1C[C@H](O)[C@@]1(C)C(=O)[C@H](O)C3=C(C)[C@@H](OC(=O)[C@H](O)[C@H](N)c4ccccc4)C[C@@](O)([C@@H](OC(=O)c4ccccc4)[C@H]21)C3(C)C | 30 | -1.48
CC(=O)O[C@H]1C(=O)[C@@]2(C)[C@H]([C@H](OC(=O)c3ccccc3)[C@]3(O)C[C@H](OC(=O)[C@@H](O)[C@H](NC(=O)OC(C)(C)C)c4ccccc4)C(C)=C1C3(C)C)[C@]1(OC(C)=O)CO[C@@H]1C[C@@H]2O | 30 | -1.48
CC(=O)O[C@@]12CO[C@@H]1C[C@H](O)[C@@]1(C)C(=O)[C@H](O)C3=C(C)[C@@H](OC(=O)[C@@H](O)[C@@H](N)c4ccccc4)C[C@@](O)([C@@H](OC(=O)c4ccccc4)[C@H]21)C3(C)C | 30 | -1.48
CC(=O)O[C@H]1C(=O)[C@]2(C)[C@@H](OC(=O)[C@H](O)[C@@H](O)[C@H](O)CO)C[C@H]3OC[C@@]3(OC(C)=O)[C@H]2[C@H](OC(=O)c2ccccc2)[C@]2(O)C[C@H](OC(=O)[C@H](O)[C@@H](NC(=O)c3ccccc3)c3ccccc3)C(C)=C1C2(C)C | 0.4 | -0.398
CC(=O)O[C@H]1C(=O)[C@@]2(C)[C@H]([C@H](OC(=O)c3ccccc3)[C@]3(O)C[C@H](OC(=O)[C@H](O)[C@@H](NC(=O)c4ccc(C)cc4)c4ccccc4)C(C)=C1C3(C)C)[C@]1(OC(C)=O)CO[C@@H]1C[C@@H]2O | 1.6 | -0.204
COc1ccc(C(=O)N[C@@H](c2ccccc2)[C@@H](O)C(=O)O[C@H]2C[C@@]3(O)[C@@H](OC(=O)c4ccccc4)[C@@H]4[C@]5(OC(C)=O)CO[C@@H]5C[C@H](O)[C@@]4(C)C(=O)[C@H](OC(C)=O)C(=C2C)C3(C)C)cc1 | 0.6 | 0.222
CCCCOC(=O)N[C@@H](c1ccccc1)[C@@H](O)C(=O)O[C@H]1C[C@@]2(O)[C@@H](OC(=O)c3ccccc3)[C@@H]3[C@]4(OC(C)=O)CO[C@@H]4C[C@H](O)[C@@]3(C)C(=O)[C@H](OC(C)=O)C(=C1C)C2(C)C | 0.8 | 0.0969
CC(=O)O[C@H]1C(=O)[C@@]2(C)[C@H]([C@H](OC(=O)c3ccccc3)[C@]3(O)C[C@H](OC(=O)[C@@H](NC(=O)OC(C)(C)C)[C@H](O)c4ccccc4)C(C)=C1C3(C)C)[C@]1(OC(C)=O)CO[C@@H]1C[C@@H]2O | 108 | -2.03
CC(=O)O[C@@]12CO[C@@H]1C[C@H](O)[C@@]1(C)C(=O)[C@H](O)C3=C(C)[C@@H](OC(=O)/C=C/c4ccccc4)C[C@@](O)([C@@H](OC(=O)c4ccccc4)[C@H]21)C3(C)C | 23 | -1.37
